From PubChem BioAssay (NCI)
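A five-concentration, 48-hour dose response in 96-well plates underlies each endpoint, interpolated linearly between surrounding concentrations. TGI denotes the concentration required for complete inhibition of growth.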

Columns and labels:
Test in all cases: growth of human tumour cells (NCI), 48 h
A498 renal = tested on: A498 renal
HCC-2998 colon = tested on: HCC-2998 colon
IGROV1 ovarian = tested on: IGROV1 ovarian
HT29 colon = tested on: HT29 colon
DU-145 prostate = tested on: DU-145 prostate
MDA-MB-231 breast = tested on: MDA-MB-231 breast
CAKI-1 renal = tested on: CAKI-1 renal
U251 CNS = tested on: U251 CNS
NCI/ADR-RES ovarian = tested on: NCI/ADR-RES ovarian
A549 NSCLC = tested on: A549 NSCLC
UO-31 renal = tested on: UO-31 renal
HS 578T breast = tested on: HS 578T breast
SF-539 CNS = tested on: SF-539 CNS
SF-295 CNS = tested on: SF-295 CNS
COLO 205 colon = tested on: COLO 205 colon
NCI-H522 lung = tested on: NCI-H522 lung
RXF 393 renal = tested on: RXF 393 renal
LOX IMVI melanoma = tested on: LOX IMVI melanoma
MCF7 breast = tested on: MCF7 breast
SF-268 CNS = tested on: SF-268 CNS
EKVX NSCLC = tested on: EKVX NSCLC
OVCAR-8 ovarian = tested on: OVCAR-8 ovarian
OVCAR-5 ovarian = tested on: OVCAR-5 ovarian
HOP-92 NSCLC = tested on: HOP-92 NSCLC
NCI-H226 lung = tested on: NCI-H226 lung
BT-549 breast = tested on: BT-549 breast
NCI-H23 lung = tested on: NCI-H23 lung
HCT-15 colon = tested on: HCT-15 colon
MDA-N = tested on: MDA-N
T-47D breast = tested on: T-47D breast
CCRF-CEM leukemia = tested on: CCRF-CEM leukemia
M14 melanoma = tested on: M14 melanoma
SK-MEL-5 melanoma = tested on: SK-MEL-5 melanoma
MOLT-4 leukemia = tested on: MOLT-4 leukemia
K-562 leukemia = tested on: K-562 leukemia
KM12 colon = tested on: KM12 colon
SNB-19 CNS = tested on: SNB-19 CNS
HCT-116 colon = tested on: HCT-116 colon
SR leukemia = tested on: SR leukemia
UACC-62 melanoma = tested on: UACC-62 melanoma
NCI-H460 lung = tested on: NCI-H460 lung
RPMI-8226 leukemia = tested on: RPMI-8226 leukemia
ACHN renal = tested on: ACHN renal
SN12C renal = tested on: SN12C renal
HL-60(TB) leukemia = tested on: HL-60(TB) leukemia
PC-3 prostate = tested on: PC-3 prostate
SK-MEL-2 melanoma = tested on: SK-MEL-2 melanoma
OVCAR-4 ovarian = tested on: OVCAR-4 ovarian
786-0 renal = tested on: 786-0 renal
SK-OV-3 ovarian = tested on: SK-OV-3 ovarian
TK-10 renal = tested on: TK-10 renal
SW-620 colon = tested on: SW-620 colon
OVCAR-3 ovarian = tested on: OVCAR-3 ovarian
UACC-257 melanoma = tested on: UACC-257 melanoma
MDA-MB-435 = tested on: MDA-MB-435
SNB-75 CNS = tested on: SNB-75 CNS
MALME-3M melanoma = tested on: MALME-3M melanoma
HOP-62 NSCLC = tested on: HOP-62 NSCLC

In the case of `COC(=O)[C@@H]1[C@H](OC(C)=O)CCC2[C@@]3(C[C@@H](c4ccoc4)O[C@@H]3OC)[C@H](C)CC[C@]21C(=O)OC` (some centres undefined), the TGI (A498 renal) is reported as > 25 µM, the TGI (HCC-2998 colon) is reported as > 25 µM and the TGI (IGROV1 ovarian) is reported as > 25 µM. The TGI (HT29 colon) was > 25 µM, the TGI (DU-145 prostate) was > 25 µM and the TGI (MDA-MB-231 breast) was > 25 µM. The TGI (CAKI-1 renal) was > 25 µM, the TGI (U251 CNS) was > 25 µM and the TGI (NCI/ADR-RES ovarian) was > 25 µM. For the same compound, the TGI (A549 NSCLC) was > 25 µM, the TGI (UO-31 renal) was > 25 µM and the TGI (HS 578T breast) was > 25 µM. For the same compound, the TGI (SF-539 CNS) was > 25 µM, the TGI (SF-295 CNS) was > 25 µM and the TGI (COLO 205 colon) was > 25 µM. For the same compound, the TGI (NCI-H522 lung) was > 25 µM, the TGI (RXF 393 renal) was > 25 µM and the TGI (LOX IMVI melanoma) was > 25 µM. The TGI (MCF7 breast) was > 25 µM, the TGI (SF-268 CNS) was > 25 µM and the TGI (EKVX NSCLC) was > 25 µM. The TGI (OVCAR-8 ovarian) was > 25 µM, the TGI (OVCAR-5 ovarian) was > 25 µM and the TGI (HOP-92 NSCLC) was > 25 µM. For the same compound, the TGI (NCI-H226 lung) was > 25 µM, the TGI (BT-549 breast) was > 25 µM and the TGI (NCI-H23 lung) was > 25 µM. The TGI (HCT-15 colon) was > 25 µM, the TGI (MDA-N) was > 25 µM and the TGI (T-47D breast) was > 25 µM. For the same compound, the TGI (CCRF-CEM leukemia) was > 25 µM, the TGI (M14 melanoma) was > 25 µM and the TGI (SK-MEL-5 melanoma) was > 25 µM. For the same compound, the TGI (MOLT-4 leukemia) was > 25 µM, the TGI (K-562 leukemia) was > 25 µM and the TGI (KM12 colon) was > 25 µM. For the same compound, the TGI (SNB-19 CNS) was > 25 µM, the TGI (HCT-116 colon) was > 25 µM and the TGI (SR leukemia) was > 25 µM. The TGI (UACC-62 melanoma) was > 25 µM, the TGI (NCI-H460 lung) was > 25 µM and the TGI (RPMI-8226 leukemia) was > 25 µM. For the same compound, the TGI (ACHN renal) was > 25 µM, the TGI (SN12C renal) was > 25 µM and the TGI (HL-60(TB) leukemia) was > 25 µM. The TGI (PC-3 prostate) was > 25 µM, the TGI (SK-MEL-2 melanoma) was > 25 µM and the TGI (OVCAR-4 ovarian) was > 25 µM. For the same compound, the TGI (786-0 renal) was > 25 µM, the TGI (SK-OV-3 ovarian) was > 25 µM and the TGI (TK-10 renal) was > 25 µM. For the same compound, the TGI (SW-620 colon) was > 25 µM, the TGI (OVCAR-3 ovarian) was > 25 µM and the TGI (UACC-257 melanoma) was > 25 µM. The TGI (MDA-MB-435) was > 25 µM and the TGI (SNB-75 CNS) was > 25 µM.
`Cc1ccccc1-n1c(=O)c2ncn(C3CCCO3)c2n(-c2ccccc2C)c1=S` (centres undefined) was tested, and the TGI (A498 renal) was > 100 µM, the TGI (HCC-2998 colon) was > 100 µM and the TGI (IGROV1 ovarian) was > 100 µM. For the same compound, the TGI (HT29 colon) was > 100 µM, the TGI (DU-145 prostate) was > 100 µM and the TGI (MDA-MB-231 breast) was > 100 µM. The TGI (CAKI-1 renal) was > 100 µM, the TGI (NCI/ADR-RES ovarian) was > 100 µM and the TGI (A549 NSCLC) was > 100 µM. The TGI (UO-31 renal) was > 100 µM, the TGI (HS 578T breast) was > 100 µM and the TGI (SF-539 CNS) was > 100 µM. For the same compound, the TGI (SF-295 CNS) was > 100 µM, the TGI (COLO 205 colon) was > 100 µM and the TGI (MALME-3M melanoma) was > 100 µM. The TGI (NCI-H522 lung) was > 100 µM, the TGI (RXF 393 renal) was > 100 µM and the TGI (LOX IMVI melanoma) was > 100 µM. For the same compound, the TGI (MCF7 breast) was > 100 µM, the TGI (SF-268 CNS) was > 100 µM and the TGI (EKVX NSCLC) was > 100 µM. The TGI (OVCAR-8 ovarian) was > 100 µM, the TGI (OVCAR-5 ovarian) was > 100 µM and the TGI (HOP-92 NSCLC) was > 100 µM. For the same compound, the TGI (NCI-H226 lung) was > 100 µM, the TGI (BT-549 breast) was > 100 µM and the TGI (NCI-H23 lung) was > 100 µM. For the same compound, the TGI (HCT-15 colon) was > 100 µM, the TGI (MDA-N) was > 100 µM and the TGI (T-47D breast) was > 100 µM. The TGI (CCRF-CEM leukemia) was > 100 µM, the TGI (M14 melanoma) was > 100 µM and the TGI (SK-MEL-5 melanoma) was > 100 µM. The TGI (MOLT-4 leukemia) was > 100 µM, the TGI (K-562 leukemia) was > 100 µM and the TGI (KM12 colon) was > 100 µM. For the same compound, the TGI (SNB-19 CNS) was > 100 µM, the TGI (HCT-116 colon) was > 100 µM and the TGI (UACC-62 melanoma) was > 100 µM. The TGI (HOP-62 NSCLC) was > 100 µM, the TGI (RPMI-8226 leukemia) was > 100 µM and the TGI (ACHN renal) was > 100 µM. The TGI (SN12C renal) was > 100 µM, the TGI (HL-60(TB) leukemia) was > 100 µM and the TGI (SK-MEL-2 melanoma) was > 100 µM. The TGI (786-0 renal) was > 100 µM, the TGI (SK-OV-3 ovarian) was > 100 µM and the TGI (TK-10 renal) was > 100 µM. The TGI (SW-620 colon) was > 100 µM, the TGI (OVCAR-3 ovarian) was > 100 µM and the TGI (UACC-257 melanoma) was > 100 µM. For the same compound, the TGI (MDA-MB-435) was > 100 µM and the TGI (SNB-75 CNS) was > 100 µM.
